Measurements published in PMC6271338, “Synthesis and Cytotoxic Evaluation of Alkoxylated Chalcones” (Molecules, 2014).

Experiments:
HepG2 cells = assay: In vitro anti-proliferative SRB assay, HepG2; assay type: cell-based, human; settings: for IC50: Homo sapiens, HepG2, increasing concentrations up to 30 μM, mean ± SD of at least three independent experiments; for SI (CC50 HMLE/IC50 HepG2) / SI (CC50 L02/IC50 HepG2): selectivity index; for SI (CC50 HMLE/IC50 HepG2): HMLE vs HepG2; for SI (CC50 L02/IC50 HepG2): L02 vs HepG2
Procedure: (§1) HepG2 and MCF7 cells were grown in the Eagle’s minimum essential medium with Earle’s balanced salts (MEM-EBSS) medium, HeLa, A549 and L02 cells were grown in Dulbecco’s Modified Eagle Media (DMEM), SW1990 cells were grown in RPMI-1640 medium, and HMLE cell were grown in DMEM/F-12 medium. […]
(§2) Cells were seeded into 96-well plates (4000 cells/well) and incubated at 37 °C in a humidified 5% CO2 atmosphere. After 24 h, the cells were treated with different concentrations of the compounds for 48 h in triplicate to generate dose-response curves. Cell viability was evaluated using the sulforhodamine B (SRB) assay as previous described.

[1] = Cytotoxicity (SRB) against non-tumoral HMLE cells; assay type: cell-based, human; settings: human, HMLE cells (non-tumoral human mammary epithelial cells); increasing concentrations up to 100 μM; mean ± SD of at least three independent experiments; read-out: Normal Human Cell Lines, CC50, HMLE
Procedure: (§3) All compounds were also evaluated for their cytotoxic activity against two non-tumoral human cell lines named human mammary epithelial cell (HMLE) and L02 (a human liver cell line) in Table 2 and SI values between the CC50 in non-tumoral cell lines and IC50 in tumoral cells calculated.
as §1
(§4) Cells were seeded into 96-well plates (4000 cells/well) and incubated at 37 °C in a humidified 5% CO2 atmosphere. After 24 h, the cells were treated with different concentrations of the compounds for 48 h in triplicate to generate dose-response curves. Cell viability was evaluated using the sulforhodamine B (SRB) assay as previous described. […] Etoposide was used as the positive control.

SW1990 cells = assay: In vitro anti-proliferative SRB assay, SW1990; assay type: cell-based, human; settings: for IC50: Homo sapiens, SW1990, increasing concentrations up to 30 μM, mean ± SD of at least three independent experiments; for SI (CC50 HMLE/IC50 SW1990) / SI (CC50 L02/IC50 SW1990): selectivity index; for SI (CC50 HMLE/IC50 SW1990): HMLE vs SW1990; for SI (CC50 L02/IC50 SW1990): L02 vs SW1990
Procedure: as §1, §2

A549 cells = assay: In vitro anti-proliferative SRB assay, A549; assay type: cell-based, human; settings: for IC50: Homo sapiens, A549, increasing concentrations up to 30 μM, mean ± SD of at least three independent experiments; for SI (CC50 HMLE/IC50 A549) / SI (CC50 L02/IC50 A549): selectivity index; for SI (CC50 HMLE/IC50 A549): HMLE vs A549; for SI (CC50 L02/IC50 A549): L02 vs A549
Procedure: as §1, §2

HeLa cells = assay: In vitro anti-proliferative SRB assay, HeLa; assay type: cell-based, human; settings: for IC50: Homo sapiens, HeLa, increasing concentrations up to 30 μM, mean ± SD of at least three independent experiments; for SI (CC50 HMLE/IC50 Hela) / SI (CC50 L02/IC50 Hela): selectivity index; for SI (CC50 HMLE/IC50 Hela): HMLE vs HeLa; for SI (CC50 L02/IC50 Hela): L02 vs HeLa
Procedure: as §1, §2

[2] = Cytotoxicity (SRB) against non-tumoral L02 cells; assay type: cell-based, human; settings: human, L02 cells (non-tumoral human liver cell line); increasing concentrations up to 100 μM; mean ± SD of at least three independent experiments; read-out: Normal Human Cell Lines, CC50, L02
Procedure: as §3, §1, §4

MCF-7 cells = assay: In vitro anti-proliferative SRB assay, MCF-7; assay type: cell-based, human; settings: for IC50: Homo sapiens, MCF7, increasing concentrations up to 30 μM, mean ± SD of at least three independent experiments; for SI (CC50 HMLE/IC50 MCF7) / SI (CC50 L02/IC50 MCF7): selectivity index; for SI (CC50 HMLE/IC50 MCF7): HMLE vs MCF7; for SI (CC50 L02/IC50 MCF7): L02 vs MCF7
Procedure: as §1, §2

SMILES | IC50 (HepG2 cells) | SI (CC50 HMLE/IC50 HepG2) (HepG2 cells) | SI (CC50 L02/IC50 HepG2) (HepG2 cells) | CC50 at 48 h [1] | IC50 (SW1990 cells) | SI (CC50 HMLE/IC50 SW1990) (SW1990 cells) | SI (CC50 L02/IC50 SW1990) (SW1990 cells) | IC50 (A549 cells) | SI (CC50 HMLE/IC50 A549) (A549 cells) | SI (CC50 L02/IC50 A549) (A549 cells) | IC50 (HeLa cells) | SI (CC50 HMLE/IC50 Hela) (HeLa cells) | SI (CC50 L02/IC50 Hela) (HeLa cells) | CC50 at 48 h [2] | melting point | IC50 (MCF-7 cells) | SI (CC50 HMLE/IC50 MCF7) (MCF-7 cells) | SI (CC50 L02/IC50 MCF7) (MCF-7 cells)
CCOc1cccc(C(=O)/C=C/c2c(OC)cccc2OC)c1 [b9, (E)-1-(3-Ethoxyphenyl)-3-(2,6-dimethoxyphenyl)prop-2-en-1-one] | 7.71 ± 0.21 µM | 1.2 | 2.3 | 9.58 ± 0.44 µM | 10.68 ± 0.08 µM | 0.9 | 1.6 | 13.2 ± 0.43 µM | 0.7 | 1.3 | 12.2 ± 0.25 µM | 0.8 | 1.4 | 17.4 ± 5.96 µM | 63.1 to 64.8 °C | 11.59 ± 0.07 µM | 0.8 | 1.5
CCOc1ccc(C(=O)/C=C/c2c(OC)cccc2OC)cc1 [b10, (E)-1-(4-Ethoxyphenyl)-3-(2,6-dimethoxyphenyl)prop-2-en-1-one] | 10.9 ± 0.46 µM | 1.3 | 3.4 | 13.8 ± 3.77 µM | 19.5 ± 0.23 µM | 0.7 | 1.9 | 22.7 ± 0.57 µM | 0.6 | 1.6 | 14.4 ± 0.15 µM | 1.0 | 2.6 | 36.7 ± 3.41 µM | 99 to 101.2 °C | 19.8 ± 0.69 µM | 0.7 | 1.9
COc1cccc(OC)c1/C=C/C(=O)c1cccc(OCc2ccccc2)c1 [b12, (E)-1-(3-(Benzyloxy)phenyl)-3-(2,6-dimethoxyphenyl)prop-2-en-1-one] | 23.6 ± 0.84 µM | 1.3 | >4.2 | 31.4 ± 1.12 µM | 22.3 ± 0.07 µM | 1.4 |  | 13.25 ± 0.02 µM | 2.4 |  | 25.6 ± 1.16 µM | 1.2 | >3.9 | > 100 µM | 108.8 to 110.2 °C | 29.03 ± 0.09 µM | 1.1 | >3.4
COc1cccc(OC)c1/C=C/C(=O)c1ccc(OCc2ccccc2)cc1 [b13, (E)-1-(4-(Benzyloxy)phenyl)-3-(2,6-dimethoxyphenyl)prop-2-en-1-one] | 21.8 ± 0.62 µM | >4.6 | >4.6 | > 100 µM | > 30 µM |  |  | > 30 µM |  |  | > 30 µM |  |  | > 100 µM | 96.6 to 97.8 °C | > 30 µM |  | 
COc1ccc(C(=O)/C=C/c2c(OC)cccc2OC)c(OCc2ccccc2)c1 [b14, (E)-1-(2-(Benzyloxy)-4-methoxyphenyl)-3-(2,6-dimethoxyphenyl)prop-2-en-1-one] | > 30 µM |  |  | > 100 µM | > 30 µM |  |  | > 30 µM |  |  | > 30 µM |  |  | > 100 µM | 82.2 to 83.6 °C | > 30 µM |  | 
COc1cc(C(=O)/C=C/c2c(OC)cccc2OC)ccc1OCc1ccccc1 [b15, (E)-1-(4-(Benzyloxy)-3-methoxyphenyl)-3-(2,6-dimethoxyphenyl)prop-2-en-1-one] | > 30 µM |  |  | > 100 µM | > 30 µM |  |  | > 30 µM |  |  | > 30 µM |  |  | > 100 µM | 112.8 to 114.1 °C | > 30 µM |  | 
CCOc1cc(OC)ccc1C(=O)/C=C/c1c(OC)cccc1OC [b17, (E)-1-(2-Ethoxy-4-methoxyphenyl)-3-(2,6-dimethoxyphenyl)prop-2-en-1-one] | 12 ± 0.23 µM | 0.8 | 0.9 | 9.03 ± 0.8 µM |  | 0.8 | 1.0 | 9.33 ± 0.3 µM | 1.0 | 1.2 | 8.54 ± 0.14 µM | 1.1 | 1.3 | 10.9 ± 0.42 µM | 98.7 to 100.2 °C | 7.74 ± 0.1 µM | 1.2 | 1.4
COc1ccc(C(=O)/C=C/c2c(OC)cccc2OC)cc1OC [b19, (E)-1-(3,4-Dimethoxyphenyl)-3-(2,6-dimethoxyphenyl)prop-2-en-1-one] | 7.12 ± 0.67 µM | 1.5 | 5.6 | 10.5 ± 0.41 µM | 13.84 ± 0.06 µM | 0.8 | 2.9 | 13.6 ± 0.85 µM | 0.8 | 2.9 | 9.26 ± 0.04 µM | 1.1 | 4.3 | 39.8 ± 6.32 µM | 120.5 to 122.7 °C | 19.7 ± 0.2 µM | 0.5 | 2.0
COc1cccc(OC)c1/C=C/C(=O)c1ccc2c(c1)OCO2 [b20, (E)-1-(Benzo[d][1,3]dioxol-5-yl)-3-(2,6-dimethoxyphenyl)prop-2-en-1-one] | 17.5 ± 0.54 µM | 0.8 | 3.5 | 14.2 ± 1.06 µM | 25.9 ± 0.65 µM | 0.5 | 2.4 | 19.5 ± 0.9 µM | 0.7 | 3.1 | 16.2 ± 0.95 µM | 0.9 | 3.8 | 60.9 ± 5.61 µM | 138.6 to 140.4 °C | 22.5 ± 0.37 µM | 0.6 | 2.7
